This test concerns BDF1 mice, P388 leukemia ip, median survival T/C. Nature of the test: NCI In Vivo Anticancer Drug Screen. Data for tumor model P388 Leukemia (intraperitoneal) in B6D2F1 (BDF1) mice. The conditions noted are these: endpoint: median survival time, higher = longer survival. The gist of the method: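 Compound-treated tumour-bearing mice were compared with vehicle-treated controls. Survival was recorded, and the value is the treated-group measurement divided by the control-group measurement (T/C).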

[1] abbreviates: dose: 2.66 mg/kg/injection, schedule: Q01DX009 (ip), vehicle: saline with Tween-80.
[2] abbreviates: dose: 6.0 mg/kg/injection, schedule: Q01DX009 (ip), vehicle: saline with Tween-80.
[3] abbreviates: dose: 12.5 mg/kg/injection, schedule: Q04DX003 (ip), vehicle: saline with Tween-80.
Setting [4] is: dose: 100.0 mg/kg/injection, schedule: Q01DX009 (ip), vehicle: saline with Tween-80.
Setting [5] is: dose: 100.0 mg/kg/injection, schedule: Q04DX003 (ip), vehicle: saline with Tween-80.
[6] abbreviates: dose: 200.0 mg/kg/injection, schedule: Q04DX003 (ip), vehicle: saline with Tween-80.
Where [7] appears, read: dose: 400.0 mg/kg/injection, schedule: Q04DX003 (ip), vehicle: saline with Tween-80.
Setting [8] is: dose: 25.0 mg/kg/injection, schedule: Q04DX003 (ip), vehicle: saline with Tween-80.
[9] abbreviates: dose: 50.0 mg/kg/injection, schedule: Q04DX003 (ip), vehicle: saline with Tween-80.

The source of these data is PubChem BioAssay AID328 (DTP/NCI, 2004).

“And” between values parts separate entries of the source, which are not always exact repeats. Equal entries are not always repeated. Toxic doses and inconclusive results are not listed.

Take `COc1ccc(NC(=O)N(CCCl)N=O)cc1OC`: the T/C was 107 % of control (dose: 0.29 mg/kg/injection, schedule: Q04DX003 (ip), vehicle: saline with Tween-80); 110 % of control (dose: 0.44 mg/kg/injection, schedule: Q04DX003 (ip), vehicle: saline with Tween-80); 122 % of control (dose: 0.66 mg/kg/injection, schedule: Q04DX003 (ip), vehicle: saline with Tween-80); 174 % of control (dose: 0.79 mg/kg/injection, schedule: Q01DX009 (ip), vehicle: saline with Tween-80); 185 % of control (dose: 1.19 mg/kg/injection, schedule: Q01DX009 (ip), vehicle: saline with Tween-80); 186 % of control (dose: 1.78 mg/kg/injection, schedule: Q01DX009 (ip), vehicle: saline with Tween-80). Besides, the T/C reads like this: (dose: 2.2 mg/kg/injection, schedule: Q04DX003 (ip), vehicle: saline with Tween-80) 172 % of control; under setting [1], 161 % of control and 194 % of control; (dose: 3.3 mg/kg/injection, schedule: Q04DX003 (ip), vehicle: saline with Tween-80) 190 % of control; (dose: 4.0 mg/kg/injection, schedule: Q01DX009 (ip), vehicle: saline with Tween-80) 169 % of control; (dose: 5.0 mg/kg/injection, schedule: Q04DX003 (ip), vehicle: saline with Tween-80) 186 % of control; (dose: 5.5 mg/kg/injection, schedule: Q04DX003 (ip), vehicle: saline with Tween-80) 218 % of control. The T/C runs as follows: under setting [2], 169 % of control; (dose: 7.5 mg/kg/injection, schedule: Q04DX003 (ip), vehicle: saline with Tween-80) 209 % of control; (dose: 8.3 mg/kg/injection, schedule: Q04DX003 (ip), vehicle: saline with Tween-80) 209 % of control; (dose: 9.0 mg/kg/injection, schedule: Q01DX009 (ip), vehicle: saline with Tween-80) 260 % of control; under setting [3], 236 % of control; (dose: 18.7 mg/kg/injection, schedule: Q04DX003 (ip), vehicle: saline with Tween-80) 281 % of control.

As for `Cc1cc(N2CCCCC2)nc(N2CCCCC2)c1C#N`, the T/C reads like this: (dose: 50.0 mg/kg/injection, schedule: Q01DX005 (ip), vehicle: saline with Tween-80) 86 % of control; (dose: 100.0 mg/kg/injection, schedule: Q01DX005 (ip), vehicle: saline with Tween-80) 86 % of control; (dose: 200.0 mg/kg/injection, schedule: Q01DX005 (ip), vehicle: saline with Tween-80) 96 % of control.

In the case of `Nc1ccccc1CCc1ccccc1N`, the T/C by setting is: under setting [4], 104 % of control; under setting [5], 95 % of control; (dose: 200.0 mg/kg/injection, schedule: Q01DX009 (ip), vehicle: saline with Tween-80) 100 % of control; under setting [6], 95 % of control; (dose: 400.0 mg/kg/injection, schedule: Q01DX009 (ip), vehicle: saline with Tween-80) 100 % of control; under setting [7], 108 % of control.

Turning to `C[n+]1cccc2c3ccccc3c(-c3ccccc3)cc21`, the T/C by setting is: (dose: 0.39 mg/kg/injection, schedule: Q01DX009 (ip), vehicle: water) 101 % of control; (dose: 0.78 mg/kg/injection, schedule: Q01DX009 (ip), vehicle: water) 90 % of control and 106 % of control; (dose: 1.56 mg/kg/injection, schedule: Q01DX009 (ip), vehicle: water) 89 % of control and 94 % of control and 103 % of control; (dose: 3.12 mg/kg/injection, schedule: Q01DX009 (ip), vehicle: water) 87 % of control and 93 % of control and 116 % of control; (dose: 6.25 mg/kg/injection, schedule: Q01DX009 (ip), vehicle: water) 98 % of control and 104 % of control and 122 % of control; (dose: 6.25 mg/kg/injection, schedule: Q04DX003 (ip), vehicle: water) 90 % of control. The T/C reads like this: (dose: 12.5 mg/kg/injection, schedule: Q01DX009 (ip), vehicle: water) 100 % of control and 111 % of control; (dose: 12.5 mg/kg/injection, schedule: Q04DX003 (ip), vehicle: water) 103 % of control; (dose: 25.0 mg/kg/injection, schedule: Q04DX003 (ip), vehicle: water) 112 % of control; (dose: 50.0 mg/kg/injection, schedule: Q01DX009 (ip), vehicle: water) 113 % of control.

Regarding `COc1cc(O)c(C(=O)c2ccccc2)cc1S(=O)(=O)O`, the T/C (dose: 100.0 mg/kg/injection, schedule: Q01DX009 (ip), vehicle: saline) is 110 % of control; the T/C (dose: 100.0 mg/kg/injection, schedule: Q04DX003 (ip), vehicle: saline) was 109 % of control; the T/C (dose: 200.0 mg/kg/injection, schedule: Q01DX009 (ip), vehicle: saline) is 110 % of control; the T/C (dose: 200.0 mg/kg/injection, schedule: Q04DX003 (ip), vehicle: saline) is 100 % of control; the T/C (dose: 400.0 mg/kg/injection, schedule: Q01DX009 (ip), vehicle: saline) was 110 % of control; the T/C (dose: 400.0 mg/kg/injection, schedule: Q04DX003 (ip), vehicle: saline) is 100 % of control.

For `Cc1nc2ccccc2nc1CBr`, the T/C by setting is: under setting [1], 109 % of control; (dose: 3.12 mg/kg/injection, schedule: Q01DX009 (ip), vehicle: Klucel (hydroxypropylcellulose) (HPC)) 111 % of control; under setting [2], 122 % of control; (dose: 6.25 mg/kg/injection, schedule: Q01DX009 (ip), vehicle: Klucel (hydroxypropylcellulose) (HPC)) 122 % of control; (dose: 6.25 mg/kg/injection, schedule: Q04DX003 (ip), vehicle: saline with Tween-80) 109 % of control; (dose: 6.3 mg/kg/injection, schedule: Q01DX009 (ip), vehicle: Klucel (hydroxypropylcellulose) (HPC)) 105 % of control. Further, the T/C is 105 % of control (dose: 12.5 mg/kg/injection, schedule: Q01DX009 (ip), vehicle: Klucel (hydroxypropylcellulose) (HPC)); 109 % of control under setting [3]; 122 % of control (dose: 25.0 mg/kg/injection, schedule: Q01DX009 (ip), vehicle: saline with Tween-80); 113 % of control under setting [8].

With `NC1=NC(c2ccc(Cl)cc2)N(c2ccc(S(=O)(=O)Nc3ncccn3)cc2)C(N)=N1` (centres undefined), the T/C runs as follows: (dose: 25.0 mg/kg/injection, schedule: Q04DX003 (ip), vehicle: saline sonified) 104 % of control; (dose: 50.0 mg/kg/injection, schedule: Q04DX003 (ip), vehicle: saline sonified) 104 % of control; (dose: 100.0 mg/kg/injection, schedule: Q04DX003 (ip), vehicle: saline sonified) 95 % of control.

Turning to `C1CN1P1(N2CC2)=NP(N2CC2)(N2CC2)=NP(N2CC2)(N2CC2)=N1`, the T/C (dose: 0.61 mg/kg/injection, schedule: Q01DX009 (ip), vehicle: saline) is 109 % of control; the T/C (dose: 0.92 mg/kg/injection, schedule: Q01DX009 (ip), vehicle: saline) is 118 % of control; the T/C (dose: 2.1 mg/kg/injection, schedule: Q01DX009 (ip), vehicle: saline) is 154 % of control; the T/C (dose: 3.3 mg/kg/injection, schedule: Q01DX009 (ip), vehicle: saline) was 180 % of control and 203 % of control and 204 % of control; the T/C (dose: 5.0 mg/kg/injection, schedule: Q01DX009 (ip), vehicle: saline) is 190 % of control and 218 % of control; the T/C (dose: 7.5 mg/kg/injection, schedule: Q01DX009 (ip), vehicle: saline) is 265 % of control and 272 % of control and 153 % of control.

`Fc1ccccc1C1=NCC(=S)N(CC(F)(F)F)c2ccc(Cl)cc21`: the T/C was 100 % of control (dose: 50.0 mg/kg/injection, schedule: Q01DX009 (ip), vehicle: saline with Tween-80) and 96 % of control under setting [4].

Consider `CC#CC(=O)SCCNC(=O)CC`, for which the T/C was 100 % of control under setting [3]; 104 % of control under setting [8]; 95 % of control and 100 % of control under setting [9].

Regarding `CN(C)c1cc2c3c(c1)CCCN3CCC2`, the T/C (dose: 3.13 mg/kg/injection, schedule: Q01DX009 (ip), vehicle: saline) is 95 % of control; the T/C (dose: 6.25 mg/kg/injection, schedule: Q01DX009 (ip), vehicle: saline) is 100 % of control; the T/C (dose: 12.5 mg/kg/injection, schedule: Q01DX009 (ip), vehicle: saline) was 113 % of control.

Turning to `O=C1c2sccc2-c2cccc3cccc1c23`, the T/C is 96 % of control under setting [9], 93 % of control under setting [5], 94 % of control under setting [6] and 86 % of control under setting [7].
